# Patent US9889182B2, “Assisted enzyme replacement therapy” (The Regents of the University of California, priority 2009, dated 2018)
# “Also recorded” adds a separate entry of the source.
# Legend:
# [1] = system: FGF-2 binding to cell surface heparan sulfate; experiment: Inhibition of biotinylated FGF-2 binding to wild-type CHO cells; design: species or system Chinese hamster
# Description: (§1) Inhibition Experiments—Wild-type CHO cells were grown to confluence on 6-well tissue culture plates, harvested with 10 mM EDTA (37° C., 10 min), washed with phosphate-buffered saline (PBS), and incubated in suspension with biotinylated FGF-2 (10 ng/ml) (25) in F12 medium for 1 h at 4° C. in the presence of increasing concentrations of guanidinoneomycin (100 nM to 1.8 mM). The cells were then stained with streptavidin-phycoerythrin-Cy5 (BD Biosciences) for 20 min, washed three times with PBS, and analyzed by flow cytometry. Cells were also incubated in F12 medium containing 0.5 μM Arg9-BODIPY and increasing concentrations of guanidinoneomycin (1-300 μM) for 1 h at 37° C. and analyzed by flow cytometry.
# 10T1/2 cells = experiment: FACS cellular uptake of BODIPY conjugates in 10T1/2 cells; assay type: cell-based, mouse
# Description: 10T1/2 cells, an adherent non-transformed mouse fibroblast cell line, and HeLa cells, a common human cancer cell line, were purchased from ATCC and used before their 20th passage. Both cell lines were cultured in Dulbecco's modified eagle medium containing 10% fetal bovine serum at 37° C. in an 8% CO2 environment. For each experiment, cells were seeded onto 4 cm tissue culture plates (Nunc) and allowed to grow overnight to ˜80% confluency.
# Compounds 1-5 identified in Table 1, below (0.5-1 μM), were added to each dish and incubated at 37° C./8% CO2 for 0.5-1 hr. Cells were then washed once in PBS, trypsinized with 500 μl ATV solution (Gibco) for 3 minutes, pelleted in a fixed angle centrifuge for 5 minutes at 5,000×G, then brought up in 1 mL PBS. Each sample was quickly (within 5 minutes) analyzed on a FACS VantageSE cell sorter (Becton-Dickinson) using the 488 nm argon/krypton laser line and a 530 nm band pass emission filter. 2,000-10,000 cells were counted per sample.
# Wild-type CHO cells [2] = experiment: Saporin delivery, CellTiter-Blue viability, wild-type CHO cells; settings: at concentrations up to 100 nM
# Description: Saporin Delivery—A conjugate of saporin and biotinylated guanidinoneomycin was prepared by mixing streptavidinylated saporin (Advanced Targeting Systems) with biotinylated compound in 1:4 ratio. […] CellTiter-Blue (Promega) was added to the medium and cells were incubated for an additional 4 h to measure viability.
# Wild-type CHO cells [3] = experiment: Inhibition of Arg9-BODIPY binding and uptake; assay type: cell-based, Chinese hamster; settings: Arg9-BODIPY 0.5 μM, guanidinoneomycin 1-300 μM, 1 h, 37° C.
# Description: as §1
# Wild-type CHO cells [4] = experiment: Uptake of streptavidin-PE-Cy5 conjugates by flow cytometry, wild-type CHO cells; assay type: cell-based, Chinese hamster
# Description: After thawing at room temperature, compounds were diluted into F12 medium to 1 μM. To this solution, streptavidin-PE-Cy5 (BD Biosciences) was added in a 1:1000 dilution to achieve a ratio of 1:3 of fluorophore to biotin. To ensure completion of the biotin-streptavidin reaction, the solution was gently mixed and allowed to incubate at room temperature, shielded from light for 30 min. Following this incubation, compounds were diluted to the desired concentration in growth medium. For experiments done at 4° C. solutions were incubated on ice for 30 min.
# After washing with PBS, cells were incubated with the fluorescent-tagged guanidinoneomycin-, neomycin-, or Arg9-biotin for 1 h at 37° C. under an atmosphere of 5% CO2. Cells were washed with PBS, released with EDTA, and analyzed by flow cytometry.
# WT CHO-K1 cells = experiment: Competition of guanidinoneomycin construct uptake by model glycans; assay type: cell-based, Chinese hamster
# Wild-type CHO cells [5] = experiment: Live-cell uptake of fluorescent guanidinoneomycin conjugate (streptavidin-Alexa-488), microscopy; assay type: cell-based, Chinese hamster; settings: heparin 50 μg/ml
# Description: Microscopy—Cells were cultured on Lab-Tek chambered coverglass slides (Electron Microscopy Sciences) in F12 medium. After washing with PBS, cells were incubated for 1 h in 1 ml of 60 nM guanidinoneomycin coupled to streptavidin-Alexa-488 (Molecular Probes) at 37° C. Guanidinoneomycin-A488 was prepared by incubating 1 μM guanidinoneomycinbiotin with 6 μg of streptavidin-Alexa-488 in 1 ml of medium. Hoechst 33342 (2 μg/ml; Molecular Probes) was added to cells for the last 20 min of incubation. Cells were washed three times with F12 medium before live cell imaging. Microscopic images were acquired on an Olympus IX70 DeltaVision Spectris Image Deconvolution system, equipped with a temperature and atmospherically controlled stage. Images were deconvolved (10 cycles) using SoftWoRx Explorer Suite software.
compound,measurement,setting,value
"NC[C@@H]1O[C@H](O[C@H]2[C@@H](O)[C@H](O[C@@H]3[C@@H](O)[C@H](N)C[C@H](N)[C@H]3O[C@H]3O[C@H](CN)[C@@H](O)[C@H](O)[C@H]3N)O[C@@H]2CO)[C@H](N)[C@@H](O)[C@@H]1O [neomycin, neomycin B, reference compound]",inhibition of FGF-2 binding,[1],did not inhibit binding
same,enhancement of cellular uptake upon guanidinylation,"10T1/2 cells; relative to autofluorescence, BODIPY conjugates, FIG. 3 and Table 1",approximately 20 fold
saporin,cell toxicity,Wild-type CHO cells [2],No cell toxicity
"N=C(N)NC[C@@H]1O[C@H](O[C@H]2[C@@H](O)[C@H](O[C@@H]3[C@@H](O)[C@H](NC(=N)N)C[C@H](NC(=N)N)[C@H]3O[C@H]3O[C@H](CNC(=N)N)[C@@H](O)[C@H](O)[C@H]3NC(=N)N)O[C@@H]2CO)[C@H](NC(=N)N)[C@@H](O)[C@@H]1O [guanidinoneomycin, guanidino-neomycin B]",IC50,"[1]; biotinylated FGF-2 10 ng/ml, 1 h, 4° C.",~20 µM
same,inhibition of fluorescent Arg9 binding and uptake,Wild-type CHO cells [3],incomplete; also recorded: partially block
same,inhibition of transport of BODIPY-Cys(Arg)9 into cells,"10T1/2 cells; competition experiment, FACS",effectively inhibits
heparin [Heparin (A)],heparin concentration blocking uptake of fluorescent guanidinoneomycin conjugate (as low as),Wild-type CHO cells [4],≥ 100 ng/mL
same,increase of sensitivity of dimeric over monomeric construct to inhibition,WT CHO-K1 cells,3 fold
same,inhibition of uptake of monomeric guanidinoneomycin 1,WT CHO-K1 cells; at the tested concentrations,showed inhibition
same,effect of heparin in incubation medium on uptake of guanidinoneomycin-streptavidin-Alexa-488,Wild-type CHO cells [5],completely abolished uptake
